Source: PubChem BioAssay AID294 (DTP/NCI, 2004)
Where “and” joins values, the source holds several entries; their conditions need not be identical. Identical values can stand only once.

Test system: MX-1 breast xenograft, nude mice, tumor weight change
Assay: NCI In Vivo Anticancer Drug Screen. Data for tumor model Human Mammary Carcinoma MX-1 Xenograft (subcutaneous) in NU/NU Swiss (nude) mice
Settings: endpoint: optimum tumor weight change, schedule: Q04DX003 (ip), higher = larger tumour
Description: The antitumor activity of compounds was measured in mice bearing transplantable tumors. Survival or tumor size were measured and the results are expressed as the measurement made in the treated group (T) divided by the measurement made in the vehicle treated control group (C). The tumor model used in this assay is Human Mammary Carcinoma MX-1 Xenograft (subcutaneous) in NU/NU Swiss (nude) mice

[1] = dose: 3.0 mg/kg/injection, vehicle: saline
[2] = dose: 50.0 mg/kg/injection, vehicle: Klucel (hydroxypropylcellulose) (HPC)
[3] = dose: 100.0 mg/kg/injection, vehicle: Klucel (hydroxypropylcellulose) (HPC)
[4] = dose: 400.0 mg/kg/injection, vehicle: Klucel (hydroxypropylcellulose) (HPC)
[5] = dose: 12.5 mg/kg/injection, vehicle: saline with Tween-80
[6] = dose: 25.0 mg/kg/injection, vehicle: Klucel (hydroxypropylcellulose) (HPC)
[7] = dose: 100.0 mg/kg/injection, vehicle: saline with Tween-80
[8] = dose: 4.0 mg/kg/injection, vehicle: saline
[9] = dose: 8.0 mg/kg/injection, vehicle: saline
[10] = dose: 32.0 mg/kg/injection, vehicle: saline
[11] = dose: 64.0 mg/kg/injection, vehicle: saline
[12] = dose: 200.0 mg/kg/injection, vehicle: saline with Tween-80
[13] = dose: 400.0 mg/kg/injection, vehicle: saline with Tween-80
[14] = dose: 100.0 mg/kg/injection, vehicle: suspension in saline
[15] = dose: 200.0 mg/kg/injection, vehicle: suspension in saline
[16] = dose: 400.0 mg/kg/injection, vehicle: suspension in saline

SMILES: C[n+]1c(-c2cccc3ccccc23)c2cc(N)ccc2c2ccccc21
- T/C [1]: 76 % of control and 82 % of control
- T/C (dose: 6.0 mg/kg/injection, vehicle: saline): 78 % of control

SMILES: N[C@@H](Cc1ccc(N(CCCl)CCCl)cc1)C(=O)O
- T/C (dose: 2.0 mg/kg/injection, vehicle: Klucel (hydroxypropylcellulose) (HPC)): 49 % of control
- T/C (dose: 4.0 mg/kg/injection, vehicle: Klucel (hydroxypropylcellulose) (HPC)): 37 % of control
- T/C (dose: 4.0 mg/kg/injection, vehicle: suspension in saline): 19 % of control and 36 % of control
- T/C (dose: 8.0 mg/kg/injection, vehicle: Klucel (hydroxypropylcellulose) (HPC)): -42 % of control

SMILES: CN(C)N=Nc1cn[nH]c1C(N)=O
- T/C [2]: 100 % of control
- T/C [3]: 98 % of control
- T/C (dose: 200.0 mg/kg/injection, vehicle: Klucel (hydroxypropylcellulose) (HPC)): 71 % of control
- T/C [4]: 82 % of control

SMILES: CN(C)N=Nc1cccc(C(N)=O)c1
- T/C [2]: 102 % of control
- T/C [3]: 87 % of control
- T/C [4]: 81 % of control

SMILES: NC(=O)c1ccc[n+](Cc2c(Cl)cccc2Cl)c1
- T/C [1]: 169 % of control
- T/C (dose: 24.0 mg/kg/injection, vehicle: saline): 111 % of control and 112 % of control
- T/C (dose: 96.0 mg/kg/injection, vehicle: saline): 100 % of control

SMILES: C=CC(=O)N1CN(C(=O)C=C)CN(C(=O)C=C)C1
- T/C [5]: 52 % of control

SMILES: CC(C)CCCCCCCCCCCCC(=O)NCC(=O)NC1C(O)C(O)C(Nc2ncnc3nc[nH]c23)OC1C(O)CO (stereo unspecified)
- T/C (dose: 3.0 mg/kg/injection, vehicle: suspension in saline): 91 % of control
- T/C (dose: 6.0 mg/kg/injection, vehicle: suspension in saline): 109 % of control
- T/C (dose: 12.0 mg/kg/injection, vehicle: suspension in saline): 30 % of control

SMILES: OC(C1CO1)C(O)C1CO1 (stereo unspecified)
- T/C (dose: 1.0 mg/kg/injection, vehicle: saline): 70 % of control

SMILES: CCOC(=O)C1C2OC(=O)C(C(=O)C2CN(CCCl)CCCl)C1C1CC=C(CC2=CCC(C3C4C(=O)OC(C(CN(CCCl)CCCl)C4=O)C3C(=O)OCC)CC2)CC1 (stereo unspecified)
- T/C [6]: 58 % of control
- T/C [3]: 35 % of control

SMILES: CO[C@H]1C[C@](C)(O)Cc2cc3c(c(O)c21)C(=O)c1c(O)cc2c(c1C3=O)O[C@@H]1O[C@@]2(C)[C@H](O)[C@@H](N(C)C)[C@@H]1O
- T/C (dose: 6.25 mg/kg/injection, vehicle: other): 169 % of control
- T/C (dose: 12.5 mg/kg/injection, vehicle: other): 165 % of control

SMILES: COC1C(O)CC(OC2CC(OC3CC(O[C@@H]4C(=O)c5c(cc6cc(OC7CC(OC8CC(O)C(O)C(C)O8)C(O)C(C)O7)c(C)c(O)c6c5O)C[C@H]4[C@H](OC)C(=O)[C@@H](O)[C@@H](C)O)OC(C)C3O)OC(C)C2O)OC1C (stereo partly specified)
- T/C (dose: 0.75 mg/kg/injection, vehicle: saline): 90 % of control and 95 % of control

SMILES: CC1CCC(NC(=O)N(CCCl)N=O)CC1 (stereo unspecified)
- T/C [6]: 50 % of control

SMILES: Nc1nc(N)c2cc(CNc3ccc(C(=O)NC(CC(=O)O)CC(=O)O)cc3)ccc2n1
- T/C [2]: 75 % of control
- T/C [3]: 49 % of control

SMILES: CCCC(=O)OCc1cc(=O)n(C)c2c3c4c(cc12)c(C)cc(=O)n4CO3
- T/C [2]: 48 % of control
- T/C [3]: 70 % of control

SMILES: CN(C)N=Nc1ccccc1
- T/C [2]: 221 % of control

SMILES: CCN(CC)CCCC(C)Nc1c2ccc(Cl)cc2nc2ccc(OC)cc12 (stereo unspecified)
- T/C (dose: 50.0 mg/kg/injection, vehicle: saline with Tween-80): 95 % of control
- T/C [7]: 88 % of control

SMILES: Cc1c(N)nc([C@H](CC(N)=O)NC[C@H](N)C(N)=O)nc1C(=O)N[C@H](C(=O)N[C@H](C)[C@@H](O)CC(=O)N[C@H](C(=O)NC(O[C@@H]1O[C@@H](C)[C@@H](N)[C@@H](O)[C@H]1O)C(O)c1nc(-c2nc(C(=O)NCCCCN)cs2)cs1)[C@@H](C)O)[C@@H](O[C@@H]1O[C@@H](CO)[C@@H](O)[C@H](O)[C@@H]1O[C@H]1O[C@H](CO)[C@@H](O)[C@H](OC(N)=O)[C@@H]1O)c1c[nH]cn1 (stereo partly specified)
- T/C (dose: 2.0 mg/kg/injection, vehicle: saline): 84 % of control
- T/C [8]: 47 % of control
- T/C [9]: 42 % of control
- T/C [10]: 7 % of control and 21 % of control and 29 % of control
- T/C [11]: 32 % of control

SMILES: CC1(CO)C(O)CCC2(C)C1CCC1CC3CC12CCC3(O)CO (stereo unspecified)
- T/C [7]: 50 % of control
- T/C [12]: 61 % of control
- T/C [13]: 54 % of control

SMILES: Cc1c(N)nc(C(CC(N)=O)NCC(N)C(N)=O)nc1C(=O)NC(C(=O)NC(C)C(O)CC(=O)NC(C(=O)NC(OC1OC(C)C(N)C(O)C1O)C(O)c1nc(-c2nc(C(=O)NCCCC(N)CC(=O)NCCCNCCCCN)cs2)cs1)C(C)O)C(OC1OC(CO)C(O)C(O)C1OC1OC(CO)C(O)C(OC(N)=O)C1O)c1cnc[nH]1 (stereo unspecified)
- T/C [8]: 28 % of control
- T/C [9]: 11 % of control

SMILES: C=C(C)[C@H]1Cc2c(ccc3c2O[C@@H]2COc4cc(OC)c(OC)cc4[C@@H]2C3=O)O1
- T/C (dose: 3.13 mg/kg/injection, vehicle: saline): 66 % of control
- T/C (dose: 12.5 mg/kg/injection, vehicle: saline): 86 % of control
- T/C (dose: 25.0 mg/kg/injection, vehicle: saline): 76 % of control

SMILES: O=c1[nH]cnc2n[nH]nc12
- T/C [4]: 99 % of control

SMILES: COc1cc(NS(C)(=O)=O)ccc1Nc1c2ccccc2nc2ccccc12
- T/C (dose: 8.0 mg/kg/injection, vehicle: saline + alcohol): 74 % of control

SMILES: CC(=O)OCC1OC(n2ccc(N)nc2=O)C(OC(C)=O)C1OC(C)=O (stereo unspecified)
- T/C [14]: 60 % of control
- T/C [15]: 62 % of control
- T/C [16]: 39 % of control
- T/C (dose: 800.0 mg/kg/injection, vehicle: suspension in saline): 39 % of control

SMILES: NC(=S)N/N=C/c1ccc(O)cn1
- T/C [7]: 81 % of control
- T/C [12]: 46 % of control
- T/C [13]: 39 % of control
- T/C (dose: 800.0 mg/kg/injection, vehicle: saline with Tween-80): 73 % of control

SMILES: CS(=O)(=O)OCCN(CCOS(C)(=O)=O)c1ccc(C=Nc2ccc(-c3csc(COc4ccccc4)n3)cc2)cc1
- T/C [6]: 45 % of control
- T/C [2]: 64 % of control
- T/C [3]: 99 % of control

SMILES: Cc1cc(N(CC(C)Br)CC(C)Br)ccc1N=Nc1ccccc1C(=O)O (stereo unspecified)
- T/C (dose: 3.13 mg/kg/injection, vehicle: saline with Tween-80): 75 % of control
- T/C (dose: 6.25 mg/kg/injection, vehicle: saline with Tween-80): 73 % of control
- T/C [5]: 61 % of control

SMILES: CC(CN1CC(=O)NC(=O)C1)N1CC(=O)NC(=O)C1 (stereo unspecified)
- T/C [14]: 65 % of control
- T/C [15]: 73 % of control
- T/C [16]: 55 % of control

SMILES: Cc1c(N)nc([C@H](CC(N)=O)NC[C@H](N)C(N)=O)nc1C(=O)N[C@H](C(=O)N[C@H](C)[C@@H](O)[C@H](C)C(=O)N[C@H](C(=O)NCCc1nc(-c2nc(C(=O)NCCC[S+](C)C)cs2)cs1)[C@@H](C)O)C(OC1OC(CO)C(O)C(O)C1OC1OC(CO)C(O)C(OC(N)=O)C1O)c1cnc[nH]1 (stereo partly specified)
- T/C (dose: 3.75 mg/kg/injection, vehicle: saline): 52 % of control
- T/C [8]: 55 % of control
- T/C (dose: 7.5 mg/kg/injection, vehicle: saline): 40 % of control and 41 % of control
- T/C [9]: 55 % of control and 67 % of control
- T/C (dose: 15.0 mg/kg/injection, vehicle: saline): 31 % of control (2×) and 39 % of control
- T/C (dose: 16.0 mg/kg/injection, vehicle: saline): 32 % of control and 39 % of control
- T/C (dose: 30.0 mg/kg/injection, vehicle: saline): 17 % of control and 21 % of control and 25 % of control
- T/C [10]: 15 % of control and 22 % of control and 27 % of control
- T/C (dose: 60.0 mg/kg/injection, vehicle: saline): 13 % of control and 21 % of control
- T/C [11]: 16 % of control and 27 % of control

SMILES: OCC1OC(n2cnc3c2NC=NC[C@H]3O)CC1O (stereo partly specified)
- T/C (dose: 4.0 mg/kg/injection, vehicle: water): 77 % of control
- T/C (dose: 8.0 mg/kg/injection, vehicle: water): 78 % of control
- T/C (dose: 16.0 mg/kg/injection, vehicle: water): 49 % of control

SMILES: O=S(CCCl)CCCl
- T/C [6]: 75 % of control
- T/C [3]: 34 % of control
